Where two headings read alike, the source gives them in different places.

One assay addresses T1, IDH R132C (Homo sapiens, UniProt O75874, R132C).
T1 construct: expressed in transfected cells; host or cells: U87 cells
Put plainly: Detection of 2-HG in supernatant of U87-IDH R132C cells. Type of assay: cell-based. To be noted: 72 h, LC-MS-MS, vs control; for inhibition at 0.001 µM: 1 nM compound, read-out: Inhibition rate of compounds on 2-HG in the supernatant of U87-IDH R132C cells, 1 nM; for inhibition at 0.01 µM: 10 nM compound, read-out: Inhibition rate of compounds on 2-HG in the supernatant of U87-IDH R132C cells, 10 nM; for inhibition at 0.1 µM: 100 nM compound, read-out: Inhibition rate of compounds on 2-HG in the supernatant of U87-IDH R132C cells, 100 nM. On the procedure:
U87 cells overexpressing the IDH R132C mutation were seeded in a 48-well plate at 50,000 cells/well. After the cells were incubated overnight for adhesion, the supernatant was removed. The cell culture media containing serially diluted compounds were added, and the cells were incubated for 72 h. After 72 h, the cultures were collected and diluted 10-fold with water, and acetonitrile was added to extract the metabolites. The 2-HG content in the cultures was analyzed by LC-MS-MS, and the percentage inhibition of compounds on 2-HG in the supernatant was calculated as compared with the control.

Assay [1] deals with 2-HG in HT1080 tumor tissues. Put plainly: Detection of 2-HG in HT1080 tumor tissues of nude mice. Type of assay: in vivo. To be noted: Mus musculus, HT-1080, sc, subcutaneous HT1080, 20 mg/kg. On the procedure: Nude mice were inoculated subcutaneously with 1×10^6 HT1080 cells. When the tumor volume reached 100-150 mm^3, the mice were randomly grouped into solvent control group and compounds 1, 70, 79, 85, 96, 139, 157 and LY-3410738 20 mg/kg groups. The tumors were collected three days and seven days after continuous administration, weighed, digested with a digestion solution and then homogenized. The level of 2-HG in the tumor tissues were determined by LC-MS-MS. The percentage inhibition of compounds on 2-HG in tumor tissues was calculated as compared with the control.

The mark [2] stands for this setting: 72 h, three days of continuous administration, read-out: Inhibition rate of compounds on 2-HG in HT1080 tumor tissues, 3 days.
Setting [3] is: 168 h, seven days of continuous administration, read-out: Inhibition rate of compounds on 2-HG in HT1080 tumor tissues, 7 days.

T1 sequence (O75874 whole entry R132C): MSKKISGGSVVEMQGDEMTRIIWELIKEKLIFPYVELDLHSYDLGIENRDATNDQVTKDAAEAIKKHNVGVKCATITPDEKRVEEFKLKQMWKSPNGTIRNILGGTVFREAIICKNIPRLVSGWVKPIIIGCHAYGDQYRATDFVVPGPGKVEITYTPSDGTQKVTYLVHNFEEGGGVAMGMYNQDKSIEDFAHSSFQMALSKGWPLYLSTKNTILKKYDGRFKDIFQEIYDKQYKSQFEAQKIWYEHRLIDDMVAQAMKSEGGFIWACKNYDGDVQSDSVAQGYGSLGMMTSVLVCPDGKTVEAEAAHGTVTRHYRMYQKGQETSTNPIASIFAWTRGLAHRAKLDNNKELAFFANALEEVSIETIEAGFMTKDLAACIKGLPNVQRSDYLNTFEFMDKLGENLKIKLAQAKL

Usually inhibition stands for the percentage by which the read-out fell short of the control. Consider `C=CC(=O)N1CC2(C1)CN(C(CC1CC1)c1ccc([C@H](C)Nc3ncc4c(n3)N(CC)C(=O)OC4)cc1)C2` (stereo partly shown) [Compound 1], for which, on IDH R132C, the inhibition at 0.001 µM was in the range of 30 to 60%, the inhibition at 0.01 µM was over 90% and the inhibition at 0.1 µM was over 90%. Besides, the inhibition in vivo at 20 mg/kg in assay [1] (setting [2]) came out at 54 ± 18%. Also, the inhibition in vivo at 20 mg/kg in assay [1] (setting [3]) is 95 ± 0.5%.
With `C=CC(=O)N1CCN(C(CC23CC(C2)C3)c2ccc([C@H](C)Nc3ncc4c(n3)N(CC)C(=O)NC4)cc2)CC1` (stereo partly shown) [Compound 70], on IDH R132C, the inhibition at 0.001 µM was in the range of 60 to 90%, the inhibition at 0.01 µM was over 90% and the inhibition at 0.1 µM was over 90%. Moreover, the inhibition in vivo at 20 mg/kg in assay [1] (setting [2]) is 62 ± 8%. In addition, the inhibition in vivo at 20 mg/kg in assay [1] (setting [3]) was found to be 92 ± 5%.
In the case of `C=CC(=O)N1CCN(C(CC2CC2)c2ccc([C@H](C)Nc3ncc4c(n3)N(C(C)C)C(=O)NC4)cc2)CC1` (stereo partly shown) [Compound 79], at IDH R132C, the inhibition at 0.001 µM was in the range of 30 to 60%, the inhibition at 0.01 µM fell in the range of 60 to 90% and the inhibition at 0.1 µM is over 90%. In addition, the inhibition in vivo at 20 mg/kg in assay [1] (setting [2]) is 50 ± 3%. Also, the inhibition in vivo at 20 mg/kg in assay [1] (setting [3]) came to 97 ± 1%.
Taken in the same sequence, the figures for `C=CC(=O)N1CCN(C(CC2CC2)c2ccc([C@H](C)Nc3ncc4cnc(=O)n(C(C)C)c4n3)cc2)CC1` (stereo partly drawn) [Compound 85, 7-(((1S)-1-(4-(1-(4-acryloylpiperazin-1-yl)-2-cyclopropylethyl)phenyl)ethyl)amino)-1-isopropylpyrimidine[4,5-d]pyrimidine-2(1H)-one] were 60 to 90%, over 90%, over 90%, 57 ± 6% and 94 ± 3%.
On to `C=CC(=O)NC1CCN(C(CC2CC2)c2ccc([C@H](C)Nc3ncc4cnc(=O)n(C(C)C)c4n3)cc2)CC1` (stereo partly shown) [Compound 96], for which the inhibition in vivo at 20 mg/kg was 29 ± 38% in assay [1] (setting [2]) and 78 ± 4% in assay [1] (setting [3]).
Regarding `C=CC(=O)N1CCN(C(CC2CCC2)c2ccc([C@H](C)Nc3ncc4c(n3)N(CC)C(=O)OC4)cc2)CC1` (stereo partly drawn) [Compound 139, 7-(((1S)-1-(4-(1-(4-acryloylpiperazin-1-yl)-2-cyclobutylethyl)-phenyl)ethyl)amino)-1-ethyl-1,4-dihydro-2H-pyrimido[4,5-d][1,3]oxazin-2-one], the inhibition in vivo at 20 mg/kg in assay [1] (setting [2]) is 57 ± 1.8%; in assay [1] (setting [3]), 99 ± 0.4%.
`C=CC(=O)N1CCN([C@H](CC23CC(C2)C3)c2ccc([C@H](C)Nc3ncc4c(n3)N(CC)C(=O)OC4)cc2)CC1` [Compound 157-2]: on IDH R132C, the inhibition at 0.001 µM is 30 to 60%, the inhibition at 0.01 µM fell in the range of 60 to 90% and the inhibition at 0.1 µM was over 90%.
Turning to `C=CC(=O)N1CCN(C(CC23CC(C2)C3)c2ccc([C@H](C)Nc3ncc4c(n3)N(CC)C(=O)OC4)cc2)CC1` (stereo partly shown) [Compound 157], at IDH R132C, the inhibition at 0.001 µM lay in the range of 60 to 90%, the inhibition at 0.01 µM is over 90% and the inhibition at 0.1 µM is over 90%. In assay [1] (setting [2]), the inhibition in vivo at 20 mg/kg was determined as 60 ± 8%. For the same molecule, the inhibition in vivo at 20 mg/kg in assay [1] (setting [3]) stood at 90 ± 7%.
With `N#Cc1ccnc(N2C(=O)CC[C@H]2C(=O)N(c2cncc(F)c2)[C@H](C(=O)NC2CC(F)(F)C2)c2ccccc2Cl)c1` [Ivosidenib, ivosidenib, reference compound], on IDH R132C, the inhibition at 0.001 µM is under 30%, the inhibition at 0.01 µM was under 30% and the inhibition at 0.1 µM lay within 60 to 90%.
For the molecule `C=CC(=O)N1CCN([C@@H](CC2CC2)c2ccc([C@H](C)Nc3ncc4c(n3)N(CC)C(=O)OC4)cc2)CC1` [LY-3410738, reference compound], on IDH R132C, the inhibition at 0.001 µM fell in the range of 30 to 60%, the inhibition at 0.01 µM was over 90% and the inhibition at 0.1 µM is over 90%. For the same molecule, the inhibition in vivo at 20 mg/kg in assay [1] (setting [2]) amounted to 58 ± 11%. Besides, the inhibition in vivo at 20 mg/kg in assay [1] (setting [3]) worked out at 88 ± 12%.

For the origin of these results see patent US12559505B2, “IDH mutant inhibitor and use thereof” (WIGEN BIOMEDICINE TECHNOLOGY (SHANGHAI) CO., LTD., priority 2020, dated 2026).
